Some test systems named below: MOLT-4 leukemia; OVCAR-8 ovarian; MDA-MB-435; SN12C renal; ACHN renal; T-47D breast; SNB-75 CNS; K-562 leukemia; TK-10 renal; BT-549 breast; SK-OV-3 ovarian; SW-620 colon; HCT-15 colon; MCF7 breast; HT29 colon; NCI-H522 lung.
What all share (assay): NCI-60 cell line screen, 48 h

Ten compounds from PubChem BioAssay (NCI) can be followed below.

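Where inhibition never reached the appropriate level, the endpoint shown equals the highest concentration tested. Otherwise, values were interpolated linearly from a five-concentration, 48-hour dose response in 96-well plates. TGI is the concentration that stops growth completely.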 A value given as a limit tells only on which side of the number the result lay.

In the case of `COC(=O)C1=C(C(=O)OC)c2cc(OC)ccc2C(C(=S)N(C)C)S1` (stereo unspecified), the TGI in the test on MOLT-4 leukemia, in the test on OVCAR-8 ovarian, with MDA-MB-435, with SN12C renal, in the test with ACHN renal and in the test on T-47D breast was > 100 µM each time. The TGI in the test on SNB-75 CNS, in the test with K-562 leukemia, in the test with TK-10 renal, with BT-549 breast, in the test on SK-OV-3 ovarian and with SW-620 colon was > 100 µM throughout. Further, the TGI in the test with HCT-15 colon and with MCF7 breast was > 100 µM in each case.

Consider `O=C1C=CC=C/C1=C1\N=C(c2ccccc2OCC(=O)c2ccc(Br)cc2)SS1`, for which the TGI with OVCAR-8 ovarian, in the test on HT29 colon, in the test with MDA-MB-435, in the test with SN12C renal, in the test on ACHN renal and with T-47D breast was > 100 µM in each case. Further, the TGI in the test on SNB-75 CNS was 44.5 µM; with K-562 leukemia, > 100 µM; in the test with TK-10 renal it was > 100 µM; with BT-549 breast, 62.9 µM; in the test with SK-OV-3 ovarian it was > 100 µM; with SW-620 colon, > 100 µM. In addition, the TGI in the test on HCT-15 colon and with MCF7 breast was > 100 µM throughout.

For `COc1ccc(C2C3=C(Nc4ncnn42)c2ccccc2OC3c2ccccc2)cc1` (stereo unspecified), the TGI in the test with MOLT-4 leukemia is 51 µM; in the test on OVCAR-8 ovarian, > 100 µM; in the test with MDA-MB-435, 23.7 µM; in the test on SN12C renal it was > 100 µM; in the test with ACHN renal, > 100 µM; in the test with T-47D breast, 59.4 µM. Besides, the TGI in the test on K-562 leukemia was > 100 µM; in the test on BT-549 breast it was 41.5 µM; in the test on SK-OV-3 ovarian, > 100 µM; in the test with SW-620 colon, > 100 µM; in the test on HCT-15 colon it was > 100 µM; with MCF7 breast it was > 100 µM.

Regarding `CC(=O)N[C@@H](Cc1ccc(O)cn1)C(=O)NCc1cccc(Cl)c1`, the TGI in the test on MOLT-4 leukemia, in the test with NCI-H522 lung, in the test on HT29 colon, in the test with MDA-MB-435, in the test with SN12C renal and in the test with ACHN renal was > 100 µM in each case. For the same compound, the TGI with T-47D breast, in the test with K-562 leukemia, in the test on TK-10 renal, in the test on BT-549 breast, with SK-OV-3 ovarian and with SW-620 colon was > 100 µM in each case. Further, the TGI with HCT-15 colon and in the test on MCF7 breast was > 100 µM in each case.

Regarding `Cc1ccccc1N=Nc1ccc(N/N=C2/CCCNC2=O)c(C)c1`, the TGI with MOLT-4 leukemia, with NCI-H522 lung, in the test on HT29 colon, in the test on MDA-MB-435, in the test on SN12C renal and in the test with ACHN renal was > 100 µM throughout. The TGI with T-47D breast, in the test on K-562 leukemia, in the test with TK-10 renal, with BT-549 breast, in the test with SK-OV-3 ovarian and with SW-620 colon was > 100 µM in each case. Moreover, the TGI with HCT-15 colon and in the test on MCF7 breast was > 100 µM each time.

With `COc1cc2c(cc1OC)CCc1cc(OC)c(OC)cc1CC2`, the TGI in the test with MOLT-4 leukemia, in the test with OVCAR-8 ovarian, in the test with HT29 colon, with MDA-MB-435, in the test with SN12C renal and in the test with ACHN renal was > 100 µM throughout. Also, the TGI with T-47D breast, with SNB-75 CNS, in the test on K-562 leukemia, in the test on TK-10 renal, in the test on BT-549 breast and with SK-OV-3 ovarian was > 100 µM each time. For the same compound, the TGI with SW-620 colon, in the test with HCT-15 colon and in the test with MCF7 breast was > 100 µM each time.

For the compound `CN(/N=C/c1ccc(OCc2cccc(COc3ccc(C=O)cc3)n2)cc1)c1cnn(-c2ccc(Cl)cc2Cl)c(=O)c1Cl`, the TGI in the test on MOLT-4 leukemia, with NCI-H522 lung, in the test on OVCAR-8 ovarian, with HT29 colon, with MDA-MB-435 and in the test on SN12C renal was > 100 µM each time. Also, the TGI in the test on ACHN renal was > 100 µM; with T-47D breast, > 100 µM; in the test with SNB-75 CNS, 39.9 µM; with K-562 leukemia, > 100 µM; with TK-10 renal it was > 100 µM; with BT-549 breast it was > 100 µM. The TGI in the test on SW-620 colon, in the test on HCT-15 colon and in the test with MCF7 breast was > 100 µM in each case.

As to `Cc1ccc(N=Nc2c(C)c(C#N)c(=S)n(C3OC(CO)C(O)C(O)C3O)c2C)cc1` (stereo unspecified), the TGI with MOLT-4 leukemia was 48.6 µM; with HT29 colon it was > 100 µM; in the test with MDA-MB-435, 81.2 µM; in the test on SN12C renal, 94.2 µM; with ACHN renal, > 100 µM; in the test with T-47D breast, 46 µM. Besides, the TGI in the test with SNB-75 CNS is 73.2 µM; with K-562 leukemia it was > 100 µM; in the test on TK-10 renal, > 100 µM; with BT-549 breast it was 54.4 µM; in the test with SK-OV-3 ovarian, > 100 µM; with SW-620 colon it was 38.8 µM. For the same compound, the TGI with HCT-15 colon and with MCF7 breast was > 100 µM in each case.

Turning to `CC(=O)OCCOCn1cnc2c(Cl)nc(Cl)nc21`, the TGI in the test with MOLT-4 leukemia was found to be 40 µM; with NCI-H522 lung, 4.07 µM; in the test on OVCAR-8 ovarian, 44.2 µM; with HT29 colon, 32.9 µM; in the test on MDA-MB-435 it was 33.5 µM; with SN12C renal, 33.9 µM. Also, the TGI in the test on ACHN renal was 30.6 µM; in the test on T-47D breast it was 25.6 µM; in the test on SNB-75 CNS, 51.7 µM; in the test with K-562 leukemia, 5.43 µM; in the test with TK-10 renal, > 100 µM; with BT-549 breast, 36.4 µM. The figures for the TGI with SW-620 colon and with HCT-15 colon were 30.7 µM and 14.5 µM, respectively.

Take `CN1C2CCC1CC(CCNC(c1ccccc1)c1ccccc1)C2` (stereo unspecified): the TGI is > 100 µM with MOLT-4 leukemia; 85.7 µM in the test with NCI-H522 lung; > 100 µM with OVCAR-8 ovarian; > 100 µM in the test on HT29 colon; 21.4 µM in the test with MDA-MB-435; > 100 µM in the test with SN12C renal. The TGI in the test on ACHN renal was > 100 µM; with T-47D breast, 72.2 µM; in the test with SNB-75 CNS, > 100 µM; in the test with K-562 leukemia, 27.4 µM; in the test on TK-10 renal it was 55 µM; with BT-549 breast, > 100 µM. For the same compound, the TGI in the test on SK-OV-3 ovarian, in the test with SW-620 colon and in the test on HCT-15 colon was > 100 µM throughout.
